Our source for the EC50 values is patent US20020110604A1, “Composition exhibiting synergistic antioxidant activity” (Ashni Naturaceuticals, Inc., priority 2000, published 2002).

The structures appear in SMILES notation.

A short description of this assay: Total Oxyradical Scavenging Capacity (TOSC) Assay; synergy by CalcuSyn median-effect analysis. Format: biochemical. Particulars: TOSC antioxidant capacity; pure compounds, astaxanthin alone or combined at the stated ratio. The protocol: Cm is determined from the x-intercept of the median-effect plot. The fraction affected by the concentration of the test material is fa and the fraction unaffected by the concentration is fu (fu=1−fa). The exponent m is the parameter signifying the sigmoidicity or shape of the dose-effect curve. It is estimated by the slope of the median-effect plot. […] The goodness of fit for the data to the median-effect equation is represented by the linear correlation coefficient r of the median-effect plot. […] Synergy of test components is quantified using the combination index (CI) parameter. […] The equation determines only the additive effect rather than synergism or antagonism.

The term EC50 denotes the concentration that produces a half-maximal response. As for `CC1=C(/C=C/C(C)=C/C=C/C(C)=C/C=C/C=C(C)/C=C/C=C(C)/C=C/C2=C(C)C(=O)[C@@H](O)CC2(C)C)C(C)(C)C[C@H](O)C1=O` [astaxanthin, 3, 3′-dihydroxy-β,β-carotene-4, 4′-dieto-β-carotene], the EC50 is 642 µM.
